Results on 45 compounds are retold here after ChEMBL document CHEMBL4196082, “2-Aryl benzimidazoles: Synthesis, In vitro α-amylase inhibitory activity, and molecular docking study” (Eur J Med Chem, 2018).

The assay addresses T1, Alpha amylase (Homo sapiens, UniProt P0DUB6).
T1 sequence (P0DUB6 whole entry): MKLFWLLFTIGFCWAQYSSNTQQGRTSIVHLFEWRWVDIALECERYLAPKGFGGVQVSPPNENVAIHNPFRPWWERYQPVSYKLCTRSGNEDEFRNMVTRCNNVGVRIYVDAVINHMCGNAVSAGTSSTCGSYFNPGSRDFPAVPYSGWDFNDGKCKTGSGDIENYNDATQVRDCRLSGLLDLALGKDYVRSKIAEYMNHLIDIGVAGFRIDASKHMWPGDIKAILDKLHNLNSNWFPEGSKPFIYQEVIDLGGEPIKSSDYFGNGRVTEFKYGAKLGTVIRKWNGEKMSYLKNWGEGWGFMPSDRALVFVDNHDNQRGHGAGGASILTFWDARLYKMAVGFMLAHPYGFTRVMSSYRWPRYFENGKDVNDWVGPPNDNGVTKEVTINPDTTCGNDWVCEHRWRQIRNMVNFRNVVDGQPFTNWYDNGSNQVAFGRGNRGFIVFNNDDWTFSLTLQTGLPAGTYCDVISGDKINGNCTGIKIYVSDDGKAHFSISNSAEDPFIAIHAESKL
As to the kind of experiment: Inhibition of alpha-amylase (unknown origin) using starch as substrate preincubated for 10 mins followed by substrate addition measured after 10 mins by dinitrosalicylic acid reagent-based assay.

The term IC50 denotes the concentration that gives 50% inhibition.

`Cc1cc2nc(-c3cc(O)ccc3O)[nH]c2cc1C`: the IC50 turned out to be 2990 nM.
`Oc1c(Br)cc(Cl)cc1-c1nc2cc(F)ccc2[nH]1` showed an IC50 of 2860 nM.
Consider `COc1ccc(Br)c(-c2nc3ccccc3[nH]2)c1O`, for which the IC50 came to 2480 nM.
In the case of `COc1cc(-c2nc3cc(C)c(C)cc3[nH]2)cc(OC)c1Br` it was 1590 nM; in that of `Oc1ccc(-c2nc3cc(F)ccc3[nH]2)c(O)c1O`, 2540 nM; in that of `COc1ccc(-c2nc3cc(C)c(C)cc3[nH]2)c(F)c1`, 2780 nM.
In the case of `Cc1cc2nc(-c3cc(Cl)cc(Cl)c3O)[nH]c2cc1C` it was 2980 nM; in that of `COc1ccc(Br)c(-c2nc3cc(Cl)ccc3[nH]2)c1O`, 2210 nM; in that of `COc1ccc(-c2nc3cc(Cl)ccc3[nH]2)c(F)c1`, 2740 nM.
Under `COc1cc(-c2nc3cc(F)ccc3[nH]2)ccc1OC(C)=O` stands 1680 nM; under `O=[N+]([O-])c1ccc2[nH]c(-c3cc(Cl)cc(Br)c3O)nc2c1`, 2870 nM.
`COc1cc(-c2nc3cc(F)ccc3[nH]2)cc(OC)c1O` returned an IC50 of 2490 nM.
With `COc1ccc(-c2nc3cc(Cl)ccc3[nH]2)c(Cl)c1OC`, the IC50 stood at 1510 nM.
With `COc1cc(Br)c(-c2nc3cc(F)ccc3[nH]2)cc1OC`, the IC50 was found to be 1570 nM.
Regarding `O=[N+]([O-])c1ccc2[nH]c(-c3cc(Br)ccc3F)nc2c1`, the IC50 came out at 2310 nM. The IC50 values of the last two compounds are within 1.5-fold of each other.
The compound `Oc1c(Br)cc(Cl)cc1-c1nc2ccccc2[nH]1` returned an IC50 of 2850 nM.
For `COc1cc(Br)c(-c2nc3cc(C)c(C)cc3[nH]2)cc1OC`, the IC50 was determined as 1480 nM. This IC50 lies about 1.9-fold lower than the previous one.
Regarding `COc1cccc(-c2nc3cc(Cl)ccc3[nH]2)c1Cl`, the IC50 stood at 2780 nM.
The compound `COc1cc(Br)c(-c2nc3cc([N+](=O)[O-])ccc3[nH]2)cc1OC` yielded an IC50 of 1870 nM.
Take `COc1ccc(-c2nc3cc([N+](=O)[O-])ccc3[nH]2)c(F)c1`: the IC50 is 2750 nM.
`COc1cc(-c2nc3cc(C)c(C)cc3[nH]2)cc(I)c1O` had an IC50 of 1770 nM. Compared with the last compound, the IC50 is about 1.6-fold lower.
In the case of `COc1cc(-c2nc3cc(Cl)ccc3[nH]2)ccc1OC(C)=O` it was 1680 nM.
Turning to `COc1cc(-c2nc3cc([N+](=O)[O-])ccc3[nH]2)ccc1OC(C)=O`, the IC50 came to 1730 nM.
`COc1cccc(-c2nc3cc([N+](=O)[O-])ccc3[nH]2)c1Cl` returned a 50% inhibitory concentration (IC50) of 2780 nM.
In turn, `COc1ccc(Br)c(-c2nc3cc(C)c(C)cc3[nH]2)c1O` registered an IC50 of 2260 nM.
In the case of `COc1ccc(-c2nc3cc(C)c(C)cc3[nH]2)c(OC)c1OC` it was 2300 nM; in that of `COc1cccc(-c2nc3ccccc3[nH]2)c1Cl`, 2740 nM; in that of `COc1ccc(Br)cc1-c1nc2cc(Cl)ccc2[nH]1`, 2620 nM.
Compound `COc1cc(Br)c(-c2nc3cc(Cl)ccc3[nH]2)cc1OC` gave an IC50 of 1730 nM.
In the case of `Oc1c(Br)cc(Cl)cc1-c1nc2cc(Cl)ccc2[nH]1` it was 2860 nM; in that of `Oc1c(Cl)cc(Cl)cc1-c1nc2cc(F)ccc2[nH]1`, 2870 nM.
In turn, `COc1cc(-c2nc3cc(Cl)ccc3[nH]2)cc(OC)c1Br` came in with an IC50 of 1620 nM. This IC50 lies about 1.8-fold lower than the previous one.
The compound `COc1cccc(-c2nc3cc(F)ccc3[nH]2)c1Cl` came in with an IC50 of 2620 nM.
Compound `Oc1ccc(-c2nc3cc(F)ccc3[nH]2)c(O)c1` yielded an IC50 of 2980 nM.
Regarding `COc1ccc(-c2nc3cc(F)ccc3[nH]2)c(F)c1`, the IC50 came out at 1590 nM.
The compound `COc1cc(-c2nc3cc([N+](=O)[O-])ccc3[nH]2)cc(I)c1O` registered an IC50 of 1720 nM.
The compound `COc1cccc(-c2nc3cc(C)c(C)cc3[nH]2)c1Cl` yielded an IC50 of 2840 nM. Against the preceding compound, the IC50 is about 1.7-fold higher.
With `Cc1cc2nc(-c3cc(Cl)cc(Br)c3O)[nH]c2cc1C`, the IC50 was determined as 2920 nM.
In the case of `COc1cc(Br)c(-c2nc3ccccc3[nH]2)cc1OC`, the IC50 was found to be 1510 nM. Against the preceding compound, the IC50 is about 1.9-fold lower.
The compound `COc1ccc(-c2nc3cc(F)ccc3[nH]2)c(Cl)c1OC` registered an IC50 of 2560 nM.
Compound `COc1cc(-c2nc3cc(Cl)ccc3[nH]2)cc(OC)c1O` came in with an IC50 of 2520 nM.
Compound `COc1ccc(Br)c(-c2nc3cc([N+](=O)[O-])ccc3[nH]2)c1O` had an IC50 of 2290 nM.
`COc1cc(-c2nc3cc(Cl)ccc3[nH]2)cc(I)c1O`: the IC50 is 1610 nM.
Turning to `COc1ccc(Br)cc1-c1nc2cc(F)ccc2[nH]1`, the IC50 amounted to 2600 nM. This IC50 lies about 1.6-fold higher than the previous one.
For `COc1ccc(Br)c(-c2nc3cc(F)ccc3[nH]2)c1O`, the IC50 amounted to 2170 nM.
